# Results as given in patent US20260209212A1, “HETEROCYCLIC GLP-1 AGONISTS” (Gasherbrum Bio, Inc., priority 2022, published 2026).
# Biological target: GLP-1 Receptor (Homo sapiens, UniProt P43220)
# Experiment: GLP-1R agonist cAMP stimulation assay
# Format: cell-based
# Conditions: HEK293/GLP1R/CRE-LUC cells stably expressing the GLP-1 Receptor; cAMP dynamic 2 Kit (Cisbio); 30 min at 37° C.
# Method: Activation of GLP-1 receptor is known to stimulate cyclic AMP (cAMP) production in cells which indicates primary coupling to the G as subunit of the G protein heterotrimeric complex.
# To optimize functional activity directed toward G as coupling, a HEK293/CRE-Luc cell line developed by HDB stably expressing the GLP-1 Receptor was used. 200× concentration of compound working solutions were prepared (Agilent Technologies Bravo) with ½ log serial dilution in 384-well Echo LDV plate (Labcyte, Cat #LP-0200). 50 nL/well 200× concentration of compound working solutions were moved to 384-well white low volume plate (Greiner, Cat #784075) using Labcyte ECHO550.1×10^5 cells/mL HEK293/GLP1R/CRE-LUC (HD Biosciences) cell suspensions prepared with assay buffer [DPBS containing 0.5 mM IBMX (Sigma, Cat #I5879) and 0.1% BSA (GENVIEW, Cat #FA016-100 g)], 10 μL cell suspensions were added to each well of previous generated assay plate which already contains 50 nL compound at 200× concentration using ThermoFisher Multidrop Combi (1000 cells/well). Seal the plate and incubate at 37° C. with 5% CO2 for 30 min.
# After incubation the cAMP assay signal was generated using cAMP dynamic 2 Kit (Cisbio). 5 μL cAMP-d2 working solution was added to each well, followed with 5 μL Anti-cAMP antibody-cryptate working solution added to each well using ThermoFisher Multidrop Combi. Incubate at room temperature for 1 hour protected from light. Read the fluorescence at 665 and 615 nm with Reader PerkinElmer EnVision.
# Chain of GLP-1 Receptor (P43220 24-463): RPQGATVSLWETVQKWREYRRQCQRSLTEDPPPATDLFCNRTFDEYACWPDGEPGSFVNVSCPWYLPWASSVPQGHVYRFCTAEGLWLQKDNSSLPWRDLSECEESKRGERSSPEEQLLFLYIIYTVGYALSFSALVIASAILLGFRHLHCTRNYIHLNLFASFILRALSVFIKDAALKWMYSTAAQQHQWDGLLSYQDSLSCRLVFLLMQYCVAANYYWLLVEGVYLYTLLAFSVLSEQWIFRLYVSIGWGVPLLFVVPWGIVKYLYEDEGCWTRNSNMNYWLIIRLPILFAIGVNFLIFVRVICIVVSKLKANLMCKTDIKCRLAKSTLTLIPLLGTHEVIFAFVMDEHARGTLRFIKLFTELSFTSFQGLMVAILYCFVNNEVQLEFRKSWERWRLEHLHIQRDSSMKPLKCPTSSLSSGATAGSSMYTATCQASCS
row,SMILES,EC50 [nM]
1,O=C(O)c1ccc2nc(CN3CCC(c4cccc5c4OC[C@@H](c4ccc(Cl)c6ccoc46)O5)CC3)n(C[C@@H]3CCO3)c2c1 [Compound 101],0.024
2,"O=C(O)c1ccc2nc(CN3CCC(c4cccc5c4OC[C@@H](c4ccc6cnn(CC(F)F)c6c4)O5)CC3)n(C[C@@H]3CCO3)c2c1 [Compound 102, 2-({4-[(2R)-2-[1-(2,2-difluoroethyl)-1H-indazol-6-yl]-2,3-dihydro-1,4-benzodioxin-5-yl]piperidin-1-yl}methyl)-1-{[(2S)-oxetan-2-yl]methyl}-1H-1,3-benzodiazole-6-carboxylic acid]",0.065
3,N#Cc1ccc([C@@H]2COc3c(cccc3C3CCN(Cc4nc5ccc(C(=O)O)c(F)c5n4C[C@@H]4CCO4)CC3)O2)cc1 [Compound 103],0.057
4,CCn1cncc1Cn1c(CN2CCC(c3cccc4c3OC[C@@H](c3ccc(C#N)cc3)O4)CC2)nc2ccc(C(=O)O)cc21 [Compound 105],0.012
5,"N#Cc1ccc([C@@H]2COc3c(cccc3C3CCN(Cc4nc5ccc(C(=O)O)cc5n4CC4CCOC4)CC3)O2)cc1 (stereo partly drawn) [Compound 106, 2-({4-[(2R)-2-(4-cyanophenyl)-2,3-dihydro-1,4-benzodioxin-5-yl]piperidin-1-yl}methyl)-1-[(oxolan-3-yl)methyl]-1H-1,3-benzodiazole-6-carboxylic acid]",1.6
6,N#Cc1ccc([C@@H]2COc3c(cccc3C3CCN(Cc4nc5ccc(C(=O)O)cc5n4CC4(C#N)CC4)CC3)O2)cc1 [Compound 107],0.18
7,"O=C(O)c1cc(F)c2nc(CN3CCC(c4cccc5c4OC[C@@H](c4ccc(Cl)cc4)O5)CC3)n(C[C@@H]3CCO3)c2c1 [Compound 111, 2-({4-[(2R)-2-(4-chlorophenyl)-2,3-dihydro-1,4-benzodioxin-5-yl]piperidin-1-yl}methyl)-4-fluoro-1-{[(2S)-oxetan-2-yl]methyl}-1H-1,3-benzodiazole-6-carboxylic acid]",0.017
8,N#CCC1(Cn2c(CN3CCC(c4cccc5c4OC[C@@H](c4ccc(C#N)cc4)O5)CC3)nc3c(F)cc(C(=O)O)cc32)CC1 [Compound 112],0.026
9,O=C(O)c1cc(F)c2nc(CN3CCC(c4cccc5c4OC[C@@H](c4ccc(C(F)F)cc4)O5)CC3)n(C[C@@H]3CCO3)c2c1 [Compound 115],0.055
10,O=C(O)c1ccc2nc(CN3CC=C(c4cccc5c4OC[C@@H](c4ccc6cnn(CC(F)F)c6c4)O5)CC3)n(C[C@@H]3CCO3)c2c1 [Compound 117],0.42
11,"COc1cc(C(=O)O)cc2c1nc(CN1CCC(c3cccc4c3OC[C@@H](c3ccc(C#N)cc3)O4)CC1)n2C[C@@H]1CCO1 [Compound 118, 2-({4-[(2R)-2-(4-cyanophenyl)-2,3-dihydro-1,4-benzodioxin-5-yl]piperidin-1-yl}methyl)-4-methoxy-1-{[(2S)-oxetan-2-yl]methyl}-1H-1,3-benzodiazole-6-carboxylic acid]",0.011
12,"O=C(O)c1cc(F)c2nc(CN3CCC(c4cccc5c4OC[C@@H](c4ccc(Cl)c6ccoc46)O5)CC3)n(C[C@@H]3CCO3)c2c1 [Compound 122, 2-({4-[(2R)-2-(4-chloro-1-benzofuran-7-yl)-2,3-dihydro-1,4-benzodioxin-5-yl]piperidin-1-yl}methyl)-4-fluoro-1-{[(2S)-oxetan-2-yl]methyl}-1H-1,3-benzodiazole-6-carboxylic acid]",0.0012
13,COc1cc(C(=O)O)cc2c1nc(CN1CCC(c3cccc4c3OC[C@@H](c3ccc(C#N)cc3)O4)CC1)n2[C@@H]1COC[C@@H]1OC [Compound 124],0.68
14,O=C(O)c1ccc2nc(CN3CC=C(c4cccc5c4OC[C@@H](c4ccc(Cl)cc4)O5)CC3)n(C[C@@H]3CCO3)c2c1 [Compound 125],0.77
15,CC1=C(c2cccc3c2OC[C@@H](c2ccc(Cl)cc2)O3)CCN(Cc2nc3ccc(C(=O)O)cc3n2C[C@@H]2CCO2)C1 [Compound 126],1.6
16,O=C(O)c1ccc2nc(CN3CCC4(c5cccc6c5OC[C@@H](c5ccc(Cl)cc5)O6)CC4C3)n(C[C@@H]3CCO3)c2c1 (stereo partly drawn) [Compound 127],500
17,O=C(O)c1ccc2nc(CN3CCC(c4nccc5c4OC[C@@H](c4ccc(Cl)cc4)O5)CC3)n(C[C@@H]3CCO3)c2c1 [Compound 128],0.79
18,"O=C(O)c1ccc2nc(CN3CCC(c4c(F)ccc5c4OC[C@@H](c4ccc(Cl)cc4)O5)CC3)n(C[C@@H]3CCO3)c2c1 [Compound 129, 2-[[4-[(2R)-2-(4-chlorophenyl)-6-fluoro-2,3-dihydro-1,4-benzodioxin-5-yl]-1-piperidyl]methyl]-3-[[(2S)-oxetan-2-yl]methyl]benzimidazole-5-carboxylic acid]",0.38

# Further lines, results first:
row,EC50 [nM],SMILES
1,0.027,"N#Cc1ccc([C@@H]2COc3c(cccc3C3CCN(Cc4nc5c(F)cc(C(=O)O)cc5n4C[C@@H]4CCO4)CC3)O2)cc1 [Compound 104, 2-({4-[(2R)-2-(4-cyanophenyl)-2,3-dihydro-1,4-benzodioxin-5-yl]piperidin-1-yl}methyl)-4-fluoro-1-{[(2S)-oxetan-2-yl]methyl}-1H-1,3-benzodiazole-6-carboxylic acid]"
2,0.025,"N#Cc1ccc([C@@H]2COc3c(cccc3C3CCN(Cc4nc5c(F)cc(C(=O)O)c(F)c5n4C[C@@H]4CCO4)CC3)O2)cc1 [Compound 108, 2-({4-[(2R)-2-(4-cyanophenyl)-2,3-dihydro-1,4-benzodioxin-5-yl]piperidin-1-yl}methyl)-4,7-difluoro-1-{[(2S)-oxetan-2-yl]methyl}-1H-1,3-benzodiazole-6-carboxylic acid]"
3,0.041,C[C@H]1CC(c2cccc3c2OC[C@@H](c2ccc(C#N)cc2)O3)CCN1Cc1nc2c(F)cc(C(=O)O)cc2n1C[C@@H]1CCO1 (stereo partly drawn) [Compound 109]
4,100,"N#Cc1ccc([C@@H]2COc3c(cccc3C34CCN(Cc5nc6ccc(C(=O)O)cc6n5C[C@@H]5CCO5)CC3C4)O2)cc1 (stereo partly drawn) [Compound 110, 2-({6-[(2R)-2-(4-cyanophenyl)-2,3-dihydro-1,4-benzodioxin-5-yl]-3-azabicyclo[4.1.0]heptan-3-yl}methyl)-1-{[(2S)-oxetan-2-yl]methyl}-1H-1,3-benzodiazole-6-carboxylic acid]"
5,4,CC(=O)N1C[C@H](F)C[C@@H]1Cn1c(CN2CCC(c3cccc4c3OC[C@@H](c3ccc(C#N)cc3)O4)CC2)nc2ccc(C(=O)O)cc21 [Compound 113]
6,0.024,"CO[C@@H]1COC[C@@H]1n1c(CN2CCC(c3cccc4c3OC[C@@H](c3ccc(C#N)cc3)O4)CC2)nc2ccc(C(=O)O)cc21 [Compound 114, 2-({4-[(2R)-2-(4-cyanophenyl)-2,3-dihydro-1,4-benzodioxin-5-yl]piperidin-1-yl}methyl)-1-[(3S,4S)-4-methoxyoxolan-3-yl]-1H-1,3-benzodiazole-6-carboxylic acid]"
7,0.029,O=C(O)c1cc(F)c2nc(CN3CCC(c4cccc5c4OC[C@@H](c4ccc(C(F)(F)F)cc4)O5)CC3)n(C[C@@H]3CCO3)c2c1 [Compound 116]
8,0.011,"COc1cc(C(=O)O)cc2c1nc(CN1CCC(c3cccc4c3OC[C@@H](c3ccc(Cl)cc3)O4)CC1)n2C[C@@H]1CCO1 [Compound 119, 2-({4-[(2R)-2-(4-chlorophenyl)-2,3-dihydro-1,4-benzodioxin-5-yl]piperidin-1-yl}methyl)-4-methoxy-1-{[(2S)-oxetan-2-yl]methyl}-1H-1,3-benzodiazole-6-carboxylic acid]"
9,0.005,"COc1cc(C(=O)O)cc2c1nc(CN1CCC(c3cccc4c3OC[C@@H](c3ccc(Cl)c5ccoc35)O4)CC1)n2C[C@@H]1CCO1 [Compound 120, 2-({4-[(2R)-2-(4-chloro-1-benzofuran-7-yl)-2,3-dihydro-1,4-benzodioxin-5-yl]piperidin-1-yl}methyl)-4-methoxy-1-{[(2S)-oxetan-2-yl]methyl}-1H-1,3-benzodiazole-6-carboxylic acid]"
10,0.031,O=C(O)c1cc(F)c2nc(CN3CCC(c4cccc5c4OC[C@@H](c4ccc(Cl)cc4)O5)CC3)n(C[C@@H]3CCO3)c2c1F [Compound 121]
11,1.9,CO[C@H]1COC[C@H]1n1c(CN2CCC(c3cccc4c3OC[C@@H](c3ccc(Cl)cc3)O4)CC2)nc2c(F)cc(C(=O)O)cc21 [Compound 123]
12,0.16,"O=C(O)c1ccc2nc(CN3CCC(c4ccnc5c4OC[C@@H](c4ccc(Cl)cc4)O5)CC3)n(C[C@@H]3CCO3)c2c1 [Compound 130, 2-((4-((R)-3-(4-chlorophenyl)-2,3-dihydro-[1,4]dioxino[2,3-b]pyridin-8-yl)piperidin-1-yl)methyl)-1-(((S)-oxetan-2-yl)methyl)-1H-benzo[d]imidazole-6-carboxylic acid]"
